The assay has as its system Rattus norvegicus. The assay can be described thus: Anti-inflammatory activity in Rattus norvegicus albino (rat) assessed as inhibition of carrageenan-induced paw edema at 100 mg/kg, po administered 1 to 3 hr prior challenge. It counts as functional. On the technique in general: In the carrageenan paw model, swelling and tenderness develop within hours.

Results on four compounds are retold here after ChEMBL document CHEMBL3046866, “Microwave-assisted synthesis and evaluation of anti-inflammatory activity of new series of N-substituted 2-butyl-5-chloro-3H-imidazole-4-carbaldehyde derivatives” (2009).

By inhibition in vivo is commonly meant the share of the control response that was lost under treatment. On to `CCCCc1nc(Cl)c(C=O)n1Cc1cc2c(cc1C)OCO2`, for which the inhibition in vivo at 100 mg/kg worked out at 26%.
In the case of `CCCCc1nc(Cl)c(C=O)n1CC(=O)c1ccccc1`, the inhibition in vivo at 100 mg/kg turned out to be 26%.
In the case of `CCCCc1nc(Cl)c(C=O)n1CC(=O)c1ccc(Cl)cc1`, the inhibition in vivo at 100 mg/kg stood at 28%.
`CC(C)Cc1ccc(C(C)C(=O)O)cc1` (centres undefined) [IBUPROFEN]: the inhibition in vivo at 100 mg/kg was found to be 49%.
